Converted amounts (≈) assume the structure as drawn. Where two headings read alike, the source gives them in different places.
Experiments:
[1] = test system: Staphylococcus aureus ATCC29213; assay: Minimum Inhibitory Concentration (MIC) testing, broth microdilution, Staphylococcus aureus; type: cell-based; settings: Staphylococcus aureus ATCC29213; read-out: Staphylococcus aureus MICs Activity
Summary of the method: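 Broth microdilution per NCCLS M7-A5 in Mueller Hinton broth, with compound in 1.6% DMSO and inoculum at OD 0.09 diluted 1:100. Plates incubated 16–20 h at 37°C. MIC is the lowest concentration with no visible growth; scored A ≤8, B 16–64, C >64 μg/ml.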

[2] = test system: Bacillus subtilis 168CA; assay: Minimum Inhibitory Concentration (MIC) testing, broth microdilution, Bacillus subtilis; type: cell-based; settings: Bacillus subtilis 168CA; read-out: Bacillus subtilis MICs Activity
Summary of the method: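 Broth microdilution followed NCCLS M7-A5, in rich broth such as Mueller Hinton, inoculum at OD 0.09 diluted 1:100, compounds in 1.6% DMSO before inoculum. After 16–20 h at 37 °C, MIC was the lowest concentration without visible growth. Score A: ≦8 μg/ml, B: 16–64 μg/ml, C: >64 μg/ml.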

[3] = test system: various bacterial species; assay: Minimum Inhibitory Concentration (MIC) testing, broth microdilution, other bacterial species; type: cell-based
Summary of the method: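 Broth microdilution per NCCLS M7-A5 in rich broth (e.g. Mueller Hinton), inoculum from OD 0.09 suspension diluted 1:100 in 2× broth. Incubation 16-20 hours at 37° C; turbidity scored visually and spectrophotometrically. MIC is the lowest concentration inhibiting visible growth, binned A ≦8, B 16-64, C >64 micrograms/ml.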

[4] = test system: Staphylococcus aureus; assay: mouse Staphylococcus aureus septicaemia model of infection; type: in vivo; settings: survival at day 7 of infected mice; single intraperitoneal dose of 100 mg/kg at 1 hour after intraperitoneal inoculation with a lethal dose of Staphylococcus aureus
Protocol: Some of the Examples were also tested for activity in a mouse Staphylococcus aureus septicaemia model of infection.

[5] = Bacillus cereus, ATCC14579, read-out: MIC Activity Bacillus cereus ATCC 14579
[6] = Staphylococcus epidermidis, ATCC12228, read-out: MIC Activity Staphylococcus epidermidis ATCC 12228
[7] = Staphylococcus haemolyticus, ATCC29970, read-out: MIC Activity Staphylococcus haemolyticus ATCC 29970
[8] = Staphylococcus saprophyticus, ATCC15305, read-out: MIC Activity Staphylococcus saprophyticus ATCC 15305

| melting point [°C] | MIC [1] [µg/mL] | MIC [2] [µg/mL] | Structure (SMILES) | MIC [3, 5] [µg/mL] | MIC [3, 6] [µg/mL] | MIC [3, 7] [µg/mL] | MIC [3, 8] [µg/mL] | Percent survival [4] [%] |
| --- | --- | --- | --- | --- | --- | --- | --- | --- |
| 89 to 90 | 16 to 64 (≈ 58.1 to 232 µM) | 16 to 64 (≈ 58.1 to 232 µM) | CCCCCCOc1c(F)cc(F)c(C(N)=O)c1F [Example 79, 2,4,6-Trifluoro-3-(hexyloxy)benzenecarboxamide] | – | – | – | – | – |
| 108 | < 8 | < 8 | CCCCCCOC(=O)COc1ccc(F)c(C(N)=O)c1F [Example 89, Hexyl 2-[3-(aminocarbonyl)-2,4-difluorophenoxy]acetate] | – | – | – | – | – |
| 130 to 132 | < 8 | < 8 | C#CCCCCCCOC(=O)COc1ccc(F)c(C(N)=O)c1F [Example 90, 7-Octynyl 2-[3-(aminocarbonyl)-2,4-difluorophenoxy]acetate] | – | – | – | – | – |
| 96 to 97 | 16 to 64 (≈ 55.5 to 222 µM) | < 8 | N#CCCCCCCCCCOc1cccc(C(N)=O)c1 [Example 93, 3-[(9-Cyanononyl)oxy]benzenecarboxamide] | – | – | – | – | – |
| 108 to 110 | < 8 | < 8 | CCCCCCCCCOc1cc(C(N)=O)ccn1 [Example 94, 2-(Nonyloxy)isonicotinamide] | – | – | – | – | – |
| 119 to 121 | > 64 | > 64 | CC1CC1COc1cccc(C(N)=O)c1 (centres unmarked) [Example 169, 3-[(2-Methylcyclopropyl)methoxy]benzenecarboxamide] | – | – | – | – | – |
| 152 to 154 | > 64 | > 64 | Cc1cncc(COc2cccc(C(N)=O)c2)c1 [Example 170, 3-[(5-Methyl-3-pyridinyl)methoxy]benzenecarboxamide] | – | – | – | – | – |
| 122 to 123 | > 64 | > 64 | NC(=O)c1cccc(OCc2cccc(O)c2)c1 [Example 173, 3-[(3-Hydroxybenzyl)oxy]benzenecarboxamide] | – | – | – | – | – |
| 122 to 123 | > 64 | > 64 | COC(=O)C=CCOc1ccc(F)c(C(N)=O)c1F [Example 179, Methyl 4-[3-(aminocarbonyl)-2,4-difluorophenoxy]-2-butenoate] | – | – | – | – | – |
| < 40 | 16 to 64 (≈ 51.1 to 204 µM) | < 8 | CCCCOC(=O)C=CCOc1ccc(F)c(C(N)=O)c1F [Example 180, Butyl 4-[3-(aminocarbonyl)-2,4-difluorophenoxy]-2-butenoate] | – | – | – | – | – |
| 53 to 55 | 16 to 64 (≈ 50.7 to 203 µM) | < 8 | CCCCOC(=O)CCCOc1ccc(F)c(C(N)=O)c1F [Example 181, Butyl 4-[3-(aminocarbonyl)-2,4-difluorophenoxy]butanoate] | – | – | – | – | – |
| 216 to 218 | 16 to 64 (≈ 50.9 to 204 µM) | < 8 | NC(=O)c1c(F)ccc(OCc2ccc3ccccc3n2)c1F [Example 200, 2,6-Difluoro-3-(2-quinolinylmethoxy)benzenecarboxamide] | – | – | – | – | – |
| 146 to 148 | 16 to 64 (≈ 50.1 to 200 µM) | < 8 | NC(=O)c1c(F)ccc(OCc2ccc3sccc3c2)c1F [Example 201, 3-(1-Benzothiophen-5-ylmethoxy)-2,6-difluorobenzenecarboxamide] | – | – | – | – | – |
| 150 to 152 | < 8 | < 8 | NC(=O)c1c(F)ccc(OCc2cc3cc(C(F)(F)F)ccc3s2)c1F [Example 208, 2,6-Difluoro-3-[5-(trifluoromethyl)-1-benzothiophen-2-yl]methoxybenzenecarboxamide] | < 8 | – | – | < 8 | – |
| 220 to 222 | < 8 | < 8 | NC(=O)c1ccnc(OCc2nc3cc(Cl)ccc3s2)c1 [Example 222, 2-[(5-Chloro-1,3-benzothiazol-2-yl)methoxy]isonicotinamide] | – | – | – | – | – |
| 184 to 186 | < 8 | < 8 | CCc1cccc2sc(COc3ccc(F)c(C(N)=O)c3F)nc12 [Example 223, 3-[(4-Ethyl-1,3-benzothiazol-2-yl)methoxy]-2,6-difluorobenzenecarboxamide] | – | – | – | – | – |
| 190 to 192 | > 64 | 16 to 64 (≈ 45.7 to 183 µM) | COc1ccc2nc(COc3ccc(F)c(C(N)=O)c3F)sc2c1 [Example 224, 2,6-Difluoro-3-[(6-methoxy-1,3-benzothiazol-2-yl)methoxy]benzenecarboxamide] | – | – | – | – | – |
| 122 to 123 | > 64 | > 64 | N#CCOc1ccc(F)c(C(N)=O)c1F [Example 225, 3-(Cyanomethoxy)-2,6-difluorobenzenecarboxamide] | – | – | – | – | – |
| 190 to 191 | < 8 | < 8 | NC(=O)c1c(F)ccc(OCc2nc3ccc(Cl)cc3s2)c1F [Example 227, 3-[(6-Chloro-1,3-benzothiazol-2-yl)methoxy]-2,6-difluorobenzenecarboxamide] | – | – | – | – | – |
| 201 to 202 | 16 to 64 (≈ 47.9 to 191 µM) | < 8 | Cc1cccc2sc(COc3ccc(F)c(C(N)=O)c3F)nc12 [Example 228, 2,6-Difluoro-3-[(4-methyl-1,3-benzothiazol-2-yl)methoxy]benzenecarboxamide] | – | – | – | – | – |
| 174 to 175 | < 8 | < 8 | NC(=O)c1c(F)ccc(OCc2nc3ccc(OC(F)(F)F)cc3s2)c1F [Example 230, 2,6-Difluoro-3-[6-(trifluoromethoxy)-1,3-benzothiazol-2-yl]methoxybenzenecarboxamide] | – | – | – | – | – |
| 244 to 246 | < 8 | < 8 | CCCc1ccc2nc(COc3ccc(F)c(C(N)=O)c3F)sc2c1 [Example 231, 2,6-Difluoro-3-[(6-propyl-1,3-benzothiazol-2-yl)methoxy]benzenecarboxamide] | – | – | – | – | – |
| 255 to 258 | < 8 | 16 to 64 (≈ 40.3 to 161 µM) | NC(=O)c1c(F)ccc(OCc2nc3cc(-c4ccncc4)ccc3s2)c1F [Example 232, 2,6-Difluoro-3-[5-(4-pyridinyl)-1,3-benzothiazol-2-yl]methoxybenzenecarboxamide] | – | – | – | – | – |
| 209 to 210 | < 8 | < 8 | NC(=O)c1c(F)ccc(OCc2nc(-c3ccc(O)cc3)no2)c1F [Example 242, 2,6-Difluoro-3-[3-(4-hydroxyphenyl)-1,2,4-oxadiazol-5-yl]methoxybenzenecarboxamide] | – | < 8 | < 8 | – | – |

| Structure (SMILES) | melting point [°C] | MIC [1] [µg/mL] | MIC [2] [µg/mL] | MIC [3, 5] [µg/mL] | MIC [3, 6] [µg/mL] | MIC [3, 7] [µg/mL] | MIC [3, 8] [µg/mL] | Percent survival [4] [%] |
| --- | --- | --- | --- | --- | --- | --- | --- | --- |
| NC(=O)c1c(F)ccc(OCc2nc(-c3ccc(Cl)cc3)cs2)c1F [Example 106, 3-[4-(4-Chloro-phenyl)-thiazol-2-ylmethoxy]2,6-difluoro-benzamide] | – | < 8 | < 8 | < 8 | < 8 | < 8 | < 8 | 100 |
| COc1ccc(-c2noc(COc3ccc(F)c(C(N)=O)c3F)n2)cc1 [Example 241, 2,6-Difluoro-3-[3-(4-methoxyphenyl)-1,2,4-oxadiazol-5-yl]methoxybenzenecarboxamide] | – | < 8 | < 8 | – | – | – | – | 100 |
| Cc1ccc(-c2noc(COc3ccc(F)c(C(N)=O)c3F)n2)cc1 [Example 247, 2,6-Difluoro-3-[3-(4-methylphenyl)-1,2,4-oxadiazol-5-yl]methoxybenzenecarboxamide] | – | < 8 | < 8 | – | – | – | – | 100 |
